The experiment addresses PIK3CB;PIK3CG;PIK3CD;PIK3CA (human) (UniProt P48736). The experiment can be described thus: Enzyme Assay.

This note sets out measurements from the Kinase Knowledgebase extract (Sharma et al. 2016).

As to `O=C(c1nn([C@H]2CCCN(CCN3CC(F)(F)C3)C2)c2c1CS(=O)(=O)c1ccccc1-2)N1CCOCC1`, the IC50 – broadly, the concentration that inhibits the measured activity by half – worked out at 17 nM.
The value for `O=C(c1nn(CC2CCNCC2)c2c1CS(=O)(=O)c1ccccc1-2)N1CCOCC1` was 531 nM; that for `CN1CCCC(N2CCC[C@H](n3nc(C(=O)N4CCOCC4)c4c3-c3ccccc3S(=O)(=O)C4)C2)C1` (stereo partly specified) was 18 nM.
To `CN(C)CCN1CCCC(n2nc(C(=O)N3CCOCC3)c3c2-c2ccccc2S(=O)(=O)C3)C1` (stereo unspecified) belongs 72 nM.
The value for `O=C(c1n[nH]c2c1CS(=O)(=O)c1ccccc1-2)N1CCOCC1` was 2880 nM; that for `O=C(c1nn(-c2cccc(CN3CCC(F)CC3)c2)c2c1CS(=O)(=O)c1ccccc1-2)N1CCOCC1` was 437 nM; that for `O=C(c1nn(C2CCCNCC2)c2c1CS(=O)(=O)c1ccccc1-2)N1CCOCC1` (stereo unspecified) was 1900 nM.
Regarding `COC1CCN(CCN2CCC[C@H](n3nc(C(=O)N4CCOCC4)c4c3-c3ccccc3S(=O)(=O)C4)C2)CC1`, the concentration for half-maximal inhibition (IC50) came to 21 nM.
The value for `COCCNc1ccc2c(c1)S(=O)(=O)Cc1c(C(=O)N3CCOCC3)nn(-c3ccccc3)c1-2` was 6610 nM.
To `O=C(c1cccc(-n2nc(C(=O)N3CCOCC3)c3c2-c2ccccc2S(=O)(=O)C3)c1)N1CCS(=O)(=O)CC1` belongs 319 nM.
The value for `CC(=O)OCCN1CCC(n2nc(C(=O)N3CCOCC3)c3c2-c2ccccc2S(=O)(=O)C3)C1` (stereo unspecified) was 871 nM; that for `O=C(c1cccc(-n2nc(C(=O)N3CCOCC3)c3c2-c2ccccc2S(=O)(=O)C3)c1)N1CCOCC1` was 73 nM.
`O=C(c1nn([C@H]2CCCN(CCN3CCOCC3)C2)c2c1CS(=O)(=O)c1cc(F)ccc1-2)N1CCOCC1` came in with an IC50 of 14 nM.
The value for `CS(=O)(=O)C1CCN(Cc2ccc(-n3nc(C(=O)N4CCOCC4)c4c3-c3ccccc3S(=O)(=O)C4)cc2)C1` (stereo unspecified) was 920 nM; that for `O=C(c1nn(-c2cccc(Cn3ccnc3)c2)c2c1CS(=O)(=O)c1ccccc1-2)N1CCOCC1` was 673 nM.
Turning to `O=C(c1nn(-c2ccc3c(c2)OCCO3)c2c1CS(=O)(=O)c1ccccc1-2)N1CCOCC1`, the IC50 is 670 nM.
`CC(C)(C)OC(=O)N1CCC(n2nc(C(=O)N3CCOCC3)c3c2-c2ccccc2S(=O)(=O)C3)CC1` registered an IC50 of 808 nM. The IC50 values of the last two molecules are within 1.5-fold of each other.
The value for `O=C(c1nn([C@H]2CCCN(CCN3CCCC3)C2)c2c1CS(=O)(=O)c1ccccc1-2)N1CCOCC1` was 7 nM; that for `COc1ccc(C(=O)Cn2nc(C(=O)N3CCOCC3)c3c2-c2ccccc2S(=O)(=O)C3)cc1` was 14500 nM; that for `COc1ccc2c(c1)S(=O)(=O)Cc1c(C(=O)N3CCOCC3)nn([C@H]3CCCN(CCN4CCC(F)CC4)C3)c1-2` was 19 nM.
`O=C(c1nn(Cc2nc3ccccc3s2)c2c1CS(=O)(=O)c1ccccc1-2)N1CCOCC1` yielded an IC50 of 1490 nM. This IC50 is about 78-fold higher than that of the molecule before.
Molecule `O=C(c1nn(C2CCN(CCN3CCOCC3)CC2)c2c1CS(=O)(=O)c1ccccc1-2)N1CCOCC1` returned an IC50 of 369 nM.
Consider `O=C(c1nn(C2CCCCC2)c2c1CS(=O)(=O)c1cc(Br)ccc1-2)N1CCOCC1`, for which the IC50 is 691 nM.
To `CC1(C)CN(CCN2CCC[C@H](n3nc(C(=O)N4CCOCC4)c4c3-c3ccccc3S(=O)(=O)C4)C2)CCO1` belongs 73 nM; to `Nc1ccc2c(c1)-c1c(c(C(=O)N3CCOCC3)nn1-c1ccccc1)CS2(=O)=O`, 368 nM.
To `COCc1noc(-c2cccc(-n3nc(C(=O)N4CCOCC4)c4c3-c3ccccc3S(=O)(=O)C4)c2)n1` belongs 4190 nM; to `O=C(c1nn(C2CCCCC2)c2c1CS(=O)(=O)c1ccccc1-2)N1CCOCC1`, 136 nM.
The value for `O=C(c1nn(-c2ccc(CN3CCC(F)(F)CC3)cc2)c2c1CS(=O)(=O)c1ccccc1-2)N1CCOCC1` was 230 nM; that for `O=C(c1nn(CC2CCCCC2)c2c1CS(=O)(=O)c1ccccc1-2)N1CCOCC1` was 509 nM.
The molecule `O=C(c1nn(-c2ccccc2Br)c2c1CS(=O)(=O)c1ccccc1-2)N1CCOCC1` registered an IC50 of 5500 nM.
To `O=C(c1nn(C2CCC(O)CC2)c2c1CS(=O)(=O)c1ccccc1-2)N1CCOCC1` (stereo unspecified) belongs 512 nM.
